Test results reported in US6274715A, “Tricyclic erythromycin derivatives” (priority 1997, dated 2001).

Experiments:
Type in all cases: cell-based
[1] = tested on: STREPTOCOCCUS PYOGENES 930; test: In vitro antibacterial activity, MIC, BHI agar dilution; conditions: S. pyogenes 930, unit assumed
[2] = tested on: STREPTOCOCCUS BOVIS A-5169; test: as above; conditions: S. bovis A-5169, unit assumed
[3] = tested on: PSEUDOMONAS AERUGINOSA DPHD-5263; test: as above; conditions: P. aeruginosa DPHD-5263, unit assumed
[4] = tested on: STAPHYLOCOCCUS AUREUS A5177; test: as above; conditions: S. aureus A5177, unit assumed
PSEUDOMONAS CEPACIA 296I = test: as above; conditions: P. cepacia 296I, unit assumed
ESCHERICHIA COLI DC-2 = test: as above; conditions: E. coli DC-2, unit assumed
[5] = tested on: STAPHYLOCOCCUS AUREUS CMX 553; test: as above; conditions: S. aureus CMX 553, unit assumed
ESCHERICHIA COLI H560 = test: as above; conditions: E. coli H560, unit assumed
[6] = tested on: PROVIDENCIA STUARTII CMX 640; conditions: P. stuartii CMX 640; BHI agar; unit assumed
[7] = tested on: ENTEROBACTER AEROGENES ATCC 13048; test: In vitro antibacterial activity, MIC, BHI agar dilution; conditions: E. aerogenes ATCC 13048, unit assumed
[8] = tested on: MYCOBACTERIUM SMEGMATIS ATCC 114; test: as above; conditions: M. smegmatis ATCC 114, unit assumed
[9] = tested on: KLEBSIELLA PNEUMONIAE ATCC 8045; test: as above; conditions: K. pneumoniae ATCC 8045, unit assumed
[10] = tested on: STAPHYLOCOCCUS AUREUS 1775; test: as above; conditions: S. aureus 1775, unit assumed
[11] = tested on: STAPHYLOCOCCUS AUREUS ATCC 6538P; test: as above; conditions: S. aureus ATCC 6538P, 35-37° C., 20 to 24 hours, unit assumed
ESCHERICHIA COLI JUHL = conditions: E. coli JUHL; BHI agar; unit assumed
[12] = tested on: STAPHYLOCOCCUS EPIDERMIDIS 3519; conditions: S. epidermidis 3519; BHI agar; unit assumed
[13] = tested on: PSEUDOMONAS AERUGINOSA DPHD-2862; test: In vitro antibacterial activity, MIC, BHI agar dilution; conditions: P. aeruginosa DPHD-2862, unit assumed
[14] = tested on: STAPHYLOCOCCUS AUREUS NCTC10649M; test: as above; conditions: S. aureus NCTC10649M, unit assumed
ESCHERICHIA COLI SS = test: as above; conditions: E. coli SS, unit assumed
[15] = tested on: PSEUDOMONAS AERUGINOSA K799/61; test: as above; conditions: P. aeruginosa K799/61, unit assumed
[16] = tested on: STAPHYLOCOCCUS AUREUS CMX 642A; test: as above; conditions: S. aureus CMX 642A, unit assumed
STR[…] 508 = test: as above; conditions: S. agalactiae CMX 508, unit assumed
Method in brief: (§1)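 MIC was read visually as the lowest drug level with no growth, a slight haze or sparsely isolated colonies relative to a compound-free growth control. Organisms were spotted at 1:100 dilution (1:10 for slow-growing strains) onto Brain Heart Infusion agar containing serial compound dilutions and incubated 20 to 24 hours at 35-37° C.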

M[…] ATCC 4698 = test: as above; conditions: M. luteus ATCC 4698, unit assumed
Method in brief: as §1

EN[…] ATCC 8043 = test: as above; conditions: E. faecium ATCC 8043, unit assumed
Method in brief: as §1

M[…] ATCC 9341 = test: as above; conditions: M. luteus ATCC 9341, unit assumed
Method in brief: as §1

[17] = tested on: PSEUDOMONAS AERUGINOSA BMH10; test: as above; conditions: P. aeruginosa BMH10, unit assumed
[18] = tested on: STREPTOCOCCUS PYOGENES EES61; test: as above; conditions: S. pyogenes EES61, unit assumed
[19] = tested on: STAPHYLOCOCCUS AUREUS A-5278; test: as above; conditions: S. aureus A-5278, unit assumed
[20] = tested on: STREPTOCOCCUS PYOGENES PIU 2548; test: as above; conditions: S. pyogenes PIU 2548, unit assumed
[21] = tested on: PSEUDOMONAS AERUGINOSA 5007; test: as above; conditions: P. aeruginosa 5007, unit assumed
[22] = tested on: PSEUDOMONAS AERUGINOSA K799/WT; test: as above; conditions: P. aeruginosa K799/WT, unit assumed
ESCHERICHIA COLI KNK 437 = conditions: E. coli KNK 437; BHI agar; unit assumed
CANDIDA ALBICANS CCH 442 = test: In vitro antibacterial activity, MIC, BHI agar dilution; conditions: C. albicans CCH 442, unit assumed

Measured: MIC

CC[C@H]1OC(=O)[C@H](C)C(=O)[C@H](C)[C@@H](O[C@@H]2O[C@H](C)C[C@H](N(C)C)[C@H]2O)[C@](C)(OC)C[C@@H](C)C2=N[C@H](COCc3ccc(Br)cc3)CN3C(=O)O[C@@]1(C)[C@H]3[C@H]2C [Example 103]
25 µg/mL: [1]
50 µg/mL: PSEUDOMONAS CEPACIA 296I | CANDIDA ALBICANS CCH 442
100 µg/mL: ESCHERICHIA COLI DC-2 | ESCHERICHIA COLI H560 | [10] | ESCHERICHIA COLI JUHL | [19]
0.2 µg/mL: [8]
0.05 µg/mL: [4] | [5] | [11] | [12] | [14] | [16] | [20]
0.78 µg/mL: [15]
0.39 µg/mL: ESCHERICHIA COLI SS
≤ 0.005 µg/mL: [2] | STR[…] 508 | M[…] ATCC 4698 | EN[…] ATCC 8043 | M[…] ATCC 9341 | [18]
> 100 µg/mL: all other assays above

CC[C@H]1OC(=O)[C@H](C)C(=O)[C@H](C)[C@@H](O[C@@H]2O[C@H](C)C[C@H](N(C)C)[C@H]2O)[C@](C)(OC)C[C@@H](C)C2=NC3CCCC3N3C(=O)O[C@@]1(C)[C@H]3[C@H]2C (stereo partly drawn) [Example 107]
1.56 µg/mL: [8]
6.2 µg/mL: [15]
0.39 µg/mL: ESCHERICHIA COLI SS | M[…] ATCC 4698 | [20]
0.01 µg/mL: [2]
50 µg/mL: ESCHERICHIA COLI H560
0.78 µg/mL: [4] | [5] | [11] | [12] | [14] | [16]
0.02 µg/mL: STR[…] 508 | [18]
0.05 µg/mL: M[…] ATCC 9341
0.1 µg/mL: EN[…] ATCC 8043
> 100 µg/mL: all other assays above

CC[C@H]1OC(=O)[C@H](C)C(=O)[C@H](C)[C@@H](O[C@@H]2O[C@H](C)C[C@H](N(C)C)[C@H]2O)[C@](C)(OC)C[C@@H](C)C2=NC3CNCC3N3C(=O)O[C@@]1(C)[C@H]3[C@H]2C (stereo partly drawn) [Example 109]
0.1 µg/mL: STR[…] 508 | EN[…] ATCC 8043
12.5 µg/mL: ESCHERICHIA COLI DC-2
50 µg/mL: [17]
0.39 µg/mL: [4] | [11] | [12] | [14] | [15] | [16]
6.2 µg/mL: ESCHERICHIA COLI H560
0.2 µg/mL: ESCHERICHIA COLI SS | M[…] ATCC 4698
0.78 µg/mL: [5] | [20]
3.1 µg/mL: [8]
25 µg/mL: [7] | [9] | ESCHERICHIA COLI JUHL | ESCHERICHIA COLI KNK 437
0.05 µg/mL: [2] | M[…] ATCC 9341 | [18]
> 100 µg/mL: all other assays above

CC[C@H]1OC(=O)[C@H](C)C(=O)[C@H](C)[C@@H](O[C@@H]2O[C@H](C)C[C@H](N(C)C)[C@H]2O)[C@](C)(OC)C[C@@H](C)C2=NC3CN(C)CC3N3C(=O)O[C@@]1(C)[C@H]3[C@H]2C (stereo partly drawn) [Example 114]
0.1 µg/mL: STR[…] 508 | M[…] ATCC 9341
0.78 µg/mL: [4] | ESCHERICHIA COLI SS
0.2 µg/mL: EN[…] ATCC 8043
6.2 µg/mL: [8] | [15]
50 µg/mL: ESCHERICHIA COLI H560
1.56 µg/mL: [5] | [11] | [12] | [14] | [16] | M[…] ATCC 4698 | [20]
0.05 µg/mL: [18]
100 µg/mL: ESCHERICHIA COLI DC-2 | [7] | ESCHERICHIA COLI JUHL | ESCHERICHIA COLI KNK 437
0.02 µg/mL: [2]
> 100 µg/mL: all other assays above

CC[C@H]1OC(=O)[C@H](C)C(=O)[C@H](C)[C@@H](O[C@@H]2O[C@H](C)C[C@H](N(C)C)[C@H]2O)[C@](C)(OC)C[C@@H](C)C2=NC3CN(CCc4ccc([N+](=O)[O-])cc4)CC3N3C(=O)O[C@@]1(C)[C@H]3[C@H]2C (stereo partly drawn) [Example 118]
0.02 µg/mL: STR[…] 508
0.39 µg/mL: [5] | [11] | [12] | [14] | [16]
0.78 µg/mL: [8] | ESCHERICHIA COLI SS | [15] | [20]
≤ 0.005 µg/mL: [2]
0.05 µg/mL: M[…] ATCC 9341 | [18]
100 µg/mL: ESCHERICHIA COLI H560 | ESCHERICHIA COLI JUHL
0.2 µg/mL: [4] | M[…] ATCC 4698 | EN[…] ATCC 8043
> 100 µg/mL: all other assays above

CC[C@H]1OC(=O)[C@H](C)C(=O)[C@H](C)[C@@H](O[C@@H]2O[C@H](C)C[C@H](N(C)C)[C@H]2O)[C@](C)(OC)C[C@@H](C)C2=NC3CN(CCc4ccc(N)cc4)CC3N3C(=O)O[C@@]1(C)[C@H]3[C@H]2C (stereo partly drawn) [Example 121]
0.05 µg/mL: EN[…] ATCC 8043 | M[…] ATCC 9341
0.01 µg/mL: [2]
6.2 µg/mL: [8]
25 µg/mL: ESCHERICHIA COLI H560
0.2 µg/mL: ESCHERICHIA COLI SS | M[…] ATCC 4698
50 µg/mL: ESCHERICHIA COLI DC-2 | ESCHERICHIA COLI JUHL | ESCHERICHIA COLI KNK 437
0.78 µg/mL: [4] | [5] | [11] | [12] | [14] | [16] | [20]
0.02 µg/mL: STR[…] 508 | [18]
0.39 µg/mL: [15]
100 µg/mL: PSEUDOMONAS CEPACIA 296I | [7] | [9] | [17]
> 100 µg/mL: all other assays above
